Experimental findings from article PMC6838048, “A Cell-Free Approach Based on Phospholipid Characterization for Determination of the Cell Specific Unbound Drug Fraction (fu,cell)” (Pharmaceutical Research, 2019) are described below.

Common to all, as to type: in vitro ADME
Series [1] can be described thus: fu,PL from membrane affinity to PL-covered silica beads, mixed beads. The following applies: for fu,PL (in words): examples of Fig. 3c, individual PL beads and mixed beads; for fraction unbound at 15 min: mixed beads PC:PE:PS:PI 52:22:12:14 mol%, 15 min incubation, read-out: fu,mixed bead Geomean. The method, then: (§1) f u,PL was derived from membrane affinity measurements to beads covered with PLs as previously described ([6]).
(§2) Cbuffer was quantified by LC-MS/MS in samples of the supernatant that was obtained after 15 min incubation time on an orbital shaker at 1000 rpm and subsequent separation from the beads by centrifugation at 750 x g. […] Unspecific binding was evaluated by incubations into wells without added lipids.

A short description of series [2]: fu,PL from membrane affinity to PL-covered silica beads, PS. The following applies: silica beads covered with phosphatidylserine (PS), Transil; beads coated with pure PS, 15 min incubation; read-out: fu,PS Geomean. As to the method: as §1, §2
Series [3] in a line: fu,PL from membrane affinity to PL-covered silica beads, PE. The following applies: beads coated with pure PE, 15 min incubation; read-out: fu,PE Geomean. As to the method: as §1, §2
Series [4] can be described thus: fu,cell by equilibrium dialysis of cell homogenate, HL60. The following applies: human, dialysis 4 h 37°C, 10 million cells/mL homogenate, read-out: fu,HL60 Geomean. The method, then: (§3) fu,cell was measured in cassette-mode as previously described with minor modifications ([9]). Briefly, 10 million cells/mL were suspended in HBSS buffered with 10 mM HEPES and homogenized on ice by sonication (VCX 750 Sonicator, 3 mm probe, 20% intensity, 10 s). Up to 8 compounds were combined randomly and spiked into the homogenate for a final concentration of 0.5 μM. Equilibrium dialysis was performed in a Rapid Equilibirum device (Thermo Fisher Scientific) against blank HBSS buffered with 10 mM HEPES, for 4 h at 37°C on an orbital shaker at 900 rpm. Stability controls were kept at 4° and 37°C for the duration of the experiment. The concentration in both dialysis chambers was quantified by extracting the compound with acetonitrile/water (60/40) containing internal standard. Matrixes were matched with blank buffer or cell homogenate, respectively. LC-MS/MS parameters are available in Table S9. All experiments were carried out in triplicates and at least at two independent occasions.
(§4) The unbound fraction in the cell homogenate (fu,hom) was determined according to Eq. (1):1 fu,hom=Cbuffer/Chom and the fraction of unbound compound in the cell (fu,cell) was calculated by correcting for homogenate dilution according to Eq. (2):2 fu,cell=1/DP∙1/fu,hom−1+1 where the dilution constant DP was calculated using Eq. (3), assuming the Vcell to be equal to 6.5 μL/mg protein ([6],[10]). Protein content in the cell homogenates was determined at each experiment using the BCA Protein Assay Reagent Kit (Thermo Fisher Scientific Inc.).3 DP=1/Vcell

The nature of series [5]: fu,cell by equilibrium dialysis of cell homogenate, MDCK. The following applies: dog, dialysis 4 h 37°C, 10 million cells/mL homogenate, read-out: fu,MDCK Geomean. The method, then:
as §3
(§5) (3), assuming the Vcell to be equal to 6.5 μL/mg protein ([6],[10]). Protein content in the cell homogenates was determined at each experiment using the BCA Protein Assay Reagent Kit (Thermo Fisher Scientific Inc.).3 DP=1/Vcell
Background: In equilibrium dialysis free small molecules cross a membrane that holds back macromolecules.

Series [6] in a line: fu,cell by equilibrium dialysis of cell homogenate, LLC-PK1. The following applies: pig, dialysis 4 h 37°C, 10 million cells/mL homogenate, read-out: fu,LLCPK1 Geomean. As to the method:
as §3, §4

The nature of series [7]: fu,cell by equilibrium dialysis of cell homogenate, A549. Conditions: human, dialysis 4 h 37°C, 10 million cells/mL homogenate, read-out: fu,A549 Geomean. As to the method:
as §3, §4

Series [8] in a line: fu,cell by equilibrium dialysis of cell homogenate, K562. The following applies: human, dialysis 4 h 37°C, 10 million cells/mL homogenate, read-out: fu,K562 Geomean. The method, then:
as §3, §4

Series [9] can be described thus: fu,PL from membrane affinity to PL-covered silica beads, PC. The following applies: silica beads covered with phosphatidylcholine (PC), Transil; beads coated with pure PC, 15 min incubation; read-out: fu,PC Geomean. As to the method: as §1, §2
A short description of series [10]: fu,cell by equilibrium dialysis of cell homogenate, Caco-2. The following applies: human, Caco-2 cell homogenate, dialysis 4 h 37°C, 10 million cells/mL homogenate, read-out: fu,Caco-2 Geomean. The method, then: as §3, §5
The nature of series [11]: fu,cell by equilibrium dialysis of cell homogenate, HEK293. Conditions: human, dialysis 4 h 37°C, 10 million cells/mL homogenate, read-out: fu,HEK293 Geomean. The method, then:
as §3, §4

Series [12] is described as follows: fu,cell by equilibrium dialysis of cell homogenate, primary human hepatocytes. Conditions: primary human hepatocyte homogenate, dialysis 4 h 37°C, 10 million cells/mL homogenate, read-out: fu,HH Geomean. The method, then:
as §3, §4

Molecules are shown by their SMILES.

With `COC(=O)CCc1ccc(OCC(O)CNC(C)C)cc1` (stereo not shown) [Esmolol], the “fu,PL (in words)” value in [1] was “intermediate”. The fraction unbound at 15 min in series [1] stood at 0.0084; in [2] it was 0.0019; in [3], 0.0126; in series [9] it was 0.008. The fraction unbound at 4 h, 0.5 μM amounted to 0.676 in series [4]; 0.35 in [5]; 0.566 in [6]; 0.922 in series [7]; 1 in series [8]; 0.566 in series [10]. In series [11], the fraction unbound at 4 h, 0.5 μM amounted to 0.196.

Consider `Cc1cccc(C)c1OCC(=O)N[C@@H](Cc1ccccc1)[C@@H](O)C[C@H](Cc1ccccc1)NC(=O)[C@H](C(C)C)N1CCCNC1=O` [Lopinavir], for which the “fu,PL (in words)” value in series [1] is “low”. Besides, the fraction unbound at 15 min in series [1] amounted to 0.0011; in [2], 0.0011; in series [3], 0.0026; in series [9], 0.0007. Also, the fraction unbound at 4 h, 0.5 μM in series [12] was 0.0044; in series [4], 0.0168; in [5] it was 0.0119; in [6], 0.0047; in series [7], 0.0056; in series [8], 0.0234. The fraction unbound at 4 h, 0.5 μM was found to be 0.0122 in [10] and 0.0155 in series [11].

`Cn1c(=O)c2c(ncn2C)n(C)c1=O` [Caffeine]: the fraction unbound at 15 min was 0.0145 in series [1], 0.0025 in [2], 0.0154 in series [3] and 0.0096 in series [9]. The fraction unbound at 4 h, 0.5 μM in series [12] came out at 0.248; in series [5], 0.0593; in [6], 0.115; in [7], 0.0398; in series [8], 0.214; in series [11], 0.248.

As to `COc1ccccc1Oc1c(NS(=O)(=O)c2ccc(C(C)(C)C)cc2)nc(-c2ncccn2)nc1OCCO` [Bosentan], the fraction unbound at 15 min was 0.004 in series [1], 0.0014 in [2], 0.0019 in [3] and 0.002 in series [9]. Further, the fraction unbound at 4 h, 0.5 μM came to 0.0337 in series [12]; 0.0579 in series [4]; 0.036 in [5]; 0.0538 in series [6]; 0.0519 in series [7]; 0.0856 in [8]. In addition, the values for the fraction unbound at 4 h, 0.5 μM in series [10] and in series [11] were 0.0335 and 0.0634, respectively.

As to `CCCNC(=O)NS(=O)(=O)c1ccc(Cl)cc1` [Chlorpropamide], in series [1], the “fu,PL (in words)” value is listed as “high”. Besides, the fraction unbound at 15 min in series [1] is 0.0343; in [2], 0.0089; in series [3] it was 0.0109; in series [9], 0.0534. In addition, the fraction unbound at 4 h, 0.5 μM is 0.944 in series [12]; 0.54 in series [4]; 0.349 in series [5]; 0.6 in series [6]; 0.376 in series [7]; 0.638 in series [8]. In addition, the fraction unbound at 4 h, 0.5 μM is 0.654 in series [10] and 0.571 in series [11].

For the molecule `CC[C@H](C)C(=O)O[C@H]1C[C@@H](C)C=C2C=C[C@H](C)[C@H](CC[C@@H]3C[C@@H](O)CC(=O)O3)[C@H]21` [Lovastatin], the fraction unbound at 15 min is 0.0002 in series [1], 0.0002 in series [2], 0.0011 in series [3] and 0.0004 in series [9]. The fraction unbound at 4 h, 0.5 μM was found to be 0.0013 in [12]; 0.011 in series [4]; 0.0045 in series [5]; 0.002 in [6]; 0.0012 in series [7]; 0.0055 in [8]. Also, the figures for the fraction unbound at 4 h, 0.5 μM in series [10] and in series [11] were 0.0024 and 0.0074, respectively.

For the molecule `CCOc1nc2cccc(C(=O)O)c2n1Cc1ccc(-c2ccccc2-c2nnn[nH]2)cc1` [Candesartan], the fraction unbound at 15 min is 0.0081 in series [1], 0.0018 in [2], 0.0055 in series [3] and 0.0174 in [9]. Besides, the fraction unbound at 4 h, 0.5 μM came out at 0.247 in series [12]; 0.205 in series [4]; 0.0968 in [5]; 0.118 in series [6]; 0.103 in series [7]; 0.948 in [8]. Further, the results for the fraction unbound at 4 h, 0.5 μM in series [10] and in series [11] were 0.0945 and 0.246, respectively.

On to `CCN(CC)CCCC(C)Nc1ccnc2cc(Cl)ccc12` (stereo not shown) [Chloroquine], for which the fraction unbound at 15 min was 0.0044 in [1], 0.0006 in series [2], 0.0032 in [3] and 0.0014 in series [9]. Moreover, the fraction unbound at 4 h, 0.5 μM in series [12] was determined as 0.0824; in series [5] it was 0.176; in series [6], 0.0783; in [7] it was 0.0793; in [8], 0.356; in [10], 0.0777. In series [11], the fraction unbound at 4 h, 0.5 μM turned out to be 0.0824.

With `Nc1ccc(/N=N/c2ccccc2)c(N)n1` [Phenazopyridine], the fraction unbound at 15 min in series [1] came to 0.0004; in series [2], 0.0006; in [3] it was 0.0019; in series [9], 0.0005. Besides, the fraction unbound at 4 h, 0.5 μM in series [12] was determined as 0.0014; in series [4], 0.0438; in [5], 0.0215; in series [6], 0.0078; in [7], 0.0085; in series [8], 0.0348. The fraction unbound at 4 h, 0.5 μM was 0.0118 in series [10] and 0.0208 in [11].

On to `CCC(C)(C)C(=O)O[C@H]1C[C@@H](C)C=C2C=C[C@H](C)[C@H](CC[C@@H]3C[C@@H](O)CC(=O)O3)[C@H]21` [Simvastatin], for which the fraction unbound at 15 min in series [1] was 0.0001; in series [2] it was 0.0001; in series [3], 0.0001; in series [9] it was 0.001. The fraction unbound at 4 h, 0.5 μM amounted to 0.0023 in series [4]; 0.0009 in series [6]; 0.0002 in [7]; 0.0032 in series [8]; 0.0015 in [11].

For the molecule `CC(C)n1c(/C=C/C(O)CC(O)CC(=O)O)c(-c2ccc(F)cc2)c2ccccc21` (stereo not shown) [Fluvastatin], the fraction unbound at 15 min in series [1] stood at 0.002; in [2] it was 0.0034; in series [3], 0.0067; in series [9], 0.001. The fraction unbound at 4 h, 0.5 μM worked out at 0.0569 in series [4]; 0.0338 in series [5]; 0.0389 in series [6]; 0.0161 in series [7]; 0.0838 in series [8]; 0.0245 in series [10]. Moreover, in series [11], the fraction unbound at 4 h, 0.5 μM was 0.0403.
